From article PMC12844744, “Complexed Linalool with Beta-Cyclodextrin Improve Antihypertensive Activity: Pharmacokinetic and Pharmacodynamic Insights” (Pharmaceuticals, 2025)
Like-named read-outs stand apart in the source and are kept apart here.

Columns and labels:
[1] = Population PK model, intravenous administration in healthy rats; assay type: in vivo, Wistar rats; settings: i.v., 2-compartment model, linear elimination, combined error
Procedure: (§1) Population pharmacokinetic analysis was performed using Monolix® Suite 2019R1 software (Lixoft®, Antony, France). Structural models evaluated included 1- and 2-compartment models, first-order absorption, and linear elimination. Different error models were analyzed to explain the variability of the residual error, including a constant, proportional, and combined error model. […] The models were parameterized in V, ka, ke, and distribution constants (k1-2 and k2-1). The parameters were estimated with a stochastic approximation. The object function value (OFV), represented as −2 times the log-likelihood (−2LL) and Akaike Information Criterion (AIC), was used to compare the models.
(§2) The base model for i.v. and oral administration has been established. For oral linalool, after establishing the base model, new models adding the categorical covariates investigated in the study (complexed linalool administered in healthy rats and complexed linalool administered in SHRs) were developed. The visual analysis of the graphs and statistical tests (Pearson’s correlation and ANOVA) were carried out to verify if there is any relationship between the random effects of the parameters (h) and the covariables that could contribute to improving the model.
(§3) The graphs that correlate the plasma concentrations with the predicted individual or population plasma concentrations were evaluated by individual waste distribution charts (IWRES). Also, to evaluate whether simulations performed from the developed model are capable of reproducing the median and the variability of the observed data, a graph was generated to verify the predicted data visual predictive check (VPC).

[2] = set-up: method as in PMID 16596022; settings: cited from earlier work
[3] = Plasma pharmacokinetics (non-compartmental analysis), healthy Wistar rats; assay type: in vivo; settings: NCA, mean ± SD; for Fabs, Absolute bioavailability: 100 mg/kg; for AUC(0-inf): n = 6, read-out: AUC0−∞, Total Area Under the Curve; for MRT: n = 6, read-out: MRT, Mean Residence Time; for k el: n = 6, read-out: ke, elimination rate constant (converted); for half-life: n = 6, read-out: t1/2, half-life (converted)
Procedure: A bioanalytical methodology was developed and validated to quantify LIN in rat plasma using high-performance liquid chromatography with UV detection (HPLC/UV), according to RDC 27/2012 of the National Agency of Sanitary Vigilance, Brazil. Plasma aliquots (100 µL) were extracted with 300 µL of acetonitrile.
The samples were vortexed for 3 min and centrifuged at 13,000× g for 15 min, at 8 °C. The supernatant aliquots were injected into an HPLC instrument (PerkinElmer, Waltham, MA, USA), Flexar™ HPLC model), using reversed-phase column C18 (Nucleosil column 250 mm × 4.6 mm internal diameter, particle size 5 μm (Macherey—Nagel, Versmold, Germany) protected by a guard column with the same material (Hypersil BDS, 10 mm, particle size 5 μm (Thermo Scientific, Waltham, MA, USA) at a temperature of 50 ± 1 °C during the analysis.
The mobile phase was composed of water: acetonitrile (70:30, v/v), at a flow rate of 1 mL/min. LIN was detected at a wavelength of 210 nm, and the peak area was used for the quantitation of samples. The method was precise, sensitive and accurate within the concentration range of 5–100 ng/mL. All samples quantified were between the concentration range, the higher concentrations were diluted to reach the higher linear concentration.
Plasma pharmacokinetic parameters were estimated after administration of 50 mg/kg and 100 mg/kg, i.v. and orally, respectively, of LIN; 100 mg/kg orally of LIN/β-CD, in healthy Wistar rats; and 50 mg/kg of LIN/β-CD, in SHRs.
The animals received the drugs at the above doses through the caudal lateral vein or by oral gavage. Six animals were evaluated per group, as stated in the literature. After administration of the compounds, approximately 200 µL of blood samples were collected from the caudal lateral vein at 0.083, 0.25, 0.5, 1, 1.5, 2, 4, 6, and 8 h. Plasma was separated by centrifugation (6800× g at 8 ± 1 °C for 15 min) and stored at −20 °C until analysis. Non-compartmental analysis (NCA) of the individual concentration-time profiles was performed using Excel® 2016 software (Microsoft Corporation, Redmond, […], USA).
Calculated pharmacokinetic parameters included: the elimination rate constant (ke), absorption rate constant (ka), area under the concentration-time curve from 0 h to infinity (AUC0−∞), clearance (Cltot), half-life (t1/2), the volume of distribution (V), mean residence time (MRT), mean absorption time (MAT), absolute bioavailability (Fabs) and relative bioavailability (Frel). All the pharmacokinetic (PK) parameters were estimated individually aby analyzing the individual PK profiles. Results were expressed as the mean ± SD, and the PK parameters were compared by ANOVA followed by Student’s t-test (α = 0.05).

[4] = test system: spontaneously hypertensive rats (SHR); assay: Acute oral (orogastric) effects on blood pressure and heart rate over 6 h; assay type: in vivo, rat; settings: oral 50 mg/kg, monitored 6 h, vs vehicle
[5] = test system: isolated superior mesenteric artery rings from SHRs; assay: Vascular reactivity of isolated superior mesenteric artery rings after 60-day treatment; assay type: in vivo, rat; settings: mesenteric rings from SHR treated 50 mg/kg/day 60 days, mean ± S.E.M.
[6] = Population PK model with covariates, oral administration data; assay type: in vivo, Wistar rats and SHR
Procedure: as §1, §2, §3

[7] = test system: spontaneously hypertensive rats (SHR); assay: Cardiac mass index after 60-day treatment; assay type: in vivo, rat; settings: 50 mg/kg/day p.o., 60 days, vs SHR vehicle
Procedure: After 60 days of treatment period, Wistar and SHRs were euthanized in a carbon dioxide (CO2) chamber. Hearts were carefully excised, and surrounding adipose tissue and vascular structures were meticulously removed. Each heart was weighed using an analytical balance, and the cardiac mass index was calculated by normalizing the heart weight to the total body weight of the animal. A transverse cut was then made, and the left and right ventricles, and thoracic aortas. Both tissues were fixed in 4% formaldehyde for histological processing.

[8] = 2-compartment model, first-order absorption, covariates Complex and Complex SHR in V and k12

## C=CC(C)(O)CCC=C(C)C (stereo not shown) [LIN, 3,7-dimethyl-1,6-octadien-3-ol]
[1]; Wistar, rat, plasma, iv, 50 mg/kg, read-out: V, volume of distribution (population estimate)
  Vd: 22.4 L
[1]; Wistar, rat, plasma, iv, 50 mg/kg, read-out: ke, first-order elimination rate (population estimate) (converted)
  k el: 0.000101 s⁻¹
[1]
  k12, distribution constant (population estimate): 0.461 h⁻¹
  k21, distribution constant (population estimate): 1.05 h⁻¹
[2]
  LogP: ~ 3.3
[3]; oral 100 mg/kg, n = 6
  CL, clearance: 84.3 ± 37.8 mL/min/kg
  MAT, Mean absorption time: 4.69 ± 1.50 h
  Vd, Volume of Distribution: 16.29 ± 10.73 L/kg
  ka, absorption rate constant: 0.23 ± 0.07 h⁻¹
[3]; oral 100 mg/kg, n = 6, listed as LIN Free
  Fabs, Absolute bioavailability: 0.003 ± 0.001%
[3]; oral 100 mg/kg, n = 6, listed as free LIN
  Fabs, Absolute bioavailability: approximately 0.003%
[3]; rat, plasma, iv, i.v. 50 mg/kg
  AUC(0-inf): 25300 ± 18600 ng·h/mL
  MRT: 8.75 ± 4.78 h
  k el: 3.61e-05 s⁻¹
  half-life: 6.6 ± 4.04 h
[3]; rat, plasma, iv, i.v. 50 mg/kg, n = 6, read-out: CL, clearance (converted)
  clearance: 50.5 mL/min/kg
[3]; rat, plasma, iv, i.v. 50 mg/kg, n = 6, read-out: Vd, Volume of Distribution
  Vd: 25.2 ± 10.4 L/kg
[3]; rat, plasma, oral 100 mg/kg
  AUC(0-inf): 40 ± 20 ng·h/mL
  MRT: 1.97 ± 0.65 h
  k el: 2.5e-05 s⁻¹
  half-life: 8.64 ± 4.44 h
[4]
  Effect on blood pressure after oral administration: failed to produce any significant antihypertensive effect
[5]; Phe 10^−10 to 10^−5 M, expressed as percentage of KCl 60 mM contraction, in %
  Emax of contractile response to phenylephrine: 146.72 ± 12.34
[5]; SNP 10^−13 to 10^−5 M, percentage of Phe-induced contraction, in %
  Emax of endothelium-independent relaxation to sodium nitroprusside: −121.04 ± 10.45
[5]; in % (unit assumed)
  Emax of endothelium-dependent vasorelaxation to acetylcholine: −70.52 ± 6.80
[6]; [8]
  V, volume of distribution (population estimate): 15.28 L
  k21, distribution microconstant (population estimate): 0.0711 h⁻¹
  ka, absorption rate constant (population estimate): 0.226 h⁻¹
[6]; Wistar and SHR, rat, plasma, 2-compartment model, first-order absorption, covariates Complex and Complex SHR in V and k12, read-out: ke, first-order rate elimination (population estimate) (converted)
  k el: 4.53e-05 s⁻¹
[6]; final model with covariates
  V (typical population parameter, as given in text): 15.28 L/kg
[7]
  Cardiac mass index (heart weight / body weight): not observed
